Test results: US10245249B2, “Pharmaceutical compositions comprising nitroxyl donors” (Cardioxyl Pharmaceuticals, Inc., priority 2013, dated 2019)

Columns and labels:
[1] = test system: dogs; experiment: Toxicological profile of compositions formulated at pH 4 or pH 6, 24 hour infusion at 3 μg/kg/min; assay type: in vivo; details: FIG. 4; for effect of increasing infusate pH from approximately 4 to approximately 6 on toxicology: 1:1 molar donor:CAPTISOL, infused at 3 μg/kg/min
Experimental: For samples at a pH of 4, the compositions were prepared by admixing a 1:1 molar ratio of the nitroxyl donor:CAPTISOL®, lyophilizing the admixture, then diluting the lyophilized admixture into D5W. For samples at a pH of 6, the compositions were prepared by admixing a 1:1 molar ratio of the nitroxyl donor:CAPTISOL®, lyophilizing the admixture, then diluting the lyophilized admixture into D5W with 5 mM potassium phosphate. Compounds were infused at a rate of 3 μg/kg/min.

[2] = HNO production determined via N2O quantification (GC headspace analysis); assay type: physicochemical; details: PBS, 37° C.
Summary of the method: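 Compounds dissolved in argon-purged anhydrous DMF were added to argon-purged PBS in sealed vials at 37° C for the set incubation time; headspace N2O was measured by GC with micro-ECD. N2O gas and CXL-1020 served as standards, and relative N2O yield (%) was calculated per incubation time.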

[3] = In vitro stability (half-life) in rat plasma; assay type: in vitro ADME; details: male, rat, plasma, pH 7.4, 5 μM, rat plasma pH 7.4 with anticoagulant, 37° C.; read-out: T1/2 (minutes) Rat
Experimental: Certain compounds from Tables 1 and 2 and CXL-1020 were tested for their stability in phosphate buffered saline (PBS) and plasma. The assay system comprised (i) PBS, or plasma from rat, dog or human (at least 3 donors, male, pooled) at pH 7.4, and (ii) for tests conducted in plasma, an anticoagulant (sodium heparin or sodium citrate). Each test compound (5 μM) was incubated in PBS or plasma at 37° C. on a THERMOMIXER® with shaking. Three samples (n=3) were taken at each of seven sampling time points: 0, 10, 30, 60, 90, 180 and 360 minutes. The samples were immediately combined with 3 volumes (i.e., 3 times the volume of PBS or plasma) of acetonitrile containing 1% formic acid and an internal standard to terminate the reaction. AB SCIEX API 3000 LC-MS/MS analysis of the test compounds was performed without a standard curve. Half-lives (T1/2) of the test compounds were determined from graphs of the percent remaining values using the peak area response ratio. For compounds tested multiple times, the value provided in the Table represents an average of the replicate assays.

SMILES | effect of increasing infusate pH from approximately 4 to approximately 6 on toxicology [1] | improvement of inflammatory profile on increasing infusate pH from 4 to 6 ([1]; dogs) | Relative N2O Yield (90 minutes incubation) [2] | Relative N2O Yield (360 minutes incubation) [2] | half-life at 5 μM [3]
CS(=O)(=O)c1ccccc1S(=O)(=O)NO [CXL-1020, N-hydroxy-2-methanesulfonylbenzene-1-sulfonamide, reference compound] | improved the toxicology | approximately 3 fold |  |  | 
Cc1ccc(S(=O)(=O)NO)o1 [Compound 1, N-Hydroxy-5-methylfuran-2-sulfonamide] |  |  | 52% |  | 
CS(=O)(=O)c1cccc(S(=O)(=O)NO)c1 [Compound 2, N-Hydroxy-3-methanesulfonylbenzene-1-sulfonamide] | improved the toxicology |  | 82% | 94% | 
O=S(=O)(NO)c1ccco1 [Compound 83, N-Hydroxyfuran-2-sulfonamide] |  |  | 42% | 86% | 43 min
Cc1ccc(S(=O)(=O)NO)s1 [Compound 84, N-Hydroxy-5-methylthiophene-2-sulfonamide] |  |  | 52% | 67% | 65 min
Cn1ccc(S(=O)(=O)NO)n1 [Compound 85, N-Hydroxy-1-methyl-1H-pyrazole-3-sulfonamide] |  |  | 33.5% |  | 
